Columns and labels:
[1] = system: weed plants such as Digitaria sanguinalis, Echinochloa crus-galli, Setaria faberi, Setaria viridis, Sorghum halepense, Abutilon theophrasti, Amaranthum …; experiment: Pre-emergence effect on weeds (greenhouse pot test); assay type: in vivo, monocotyledonous and dicotyledonous weed plants; settings: application rate of 1 kg or less of active substance per hectare; scored visually after 3 to 4 weeks by comparison with untreated controls
In short: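 Weed seeds or rhizome pieces sown in sandy loam and covered; compounds, formulated as wettable powders or emulsion concentrates, sprayed onto the soil surface as aqueous suspensions/emulsions at 600 to 800 l water/ha in various dosages. Greenhouse growth; visual scoring of plant damage/emergence versus untreated controls after 3 to 4 weeks.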

[2] = system: harmful plants such as Digitaria sanguinalis, Echinochloa crus-galli, Setaria faberi, Setaria viridis, Sorghum halepense, Abutilon theophrasti, Amaranthum …; experiment: Post-emergence effect on weeds (greenhouse pot test); assay type: in vivo, monocotyledonous and dicotyledonous weeds; settings: application rate of 1 kg and less of active substance per hectare; treated at three-leaf stage; scored visually after about 3 to 4 weeks by comparison with untreated controls
In short: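 Greenhouse-grown weeds in sandy loam, sprayed at three-leaf stage (three weeks after sowing) with wettable powder or emulsion concentrate formulations at various dosages in 600 to 800 l water/ha. Effect scored visually against untreated controls after about 3 to 4 weeks.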

With `CC(C)(F)c1nc(N)nc(OC2CCN(c3ccccc3)C2=O)n1` (stereo not drawn) [Example A55] the herbicidal activity pre-emergence [1] was “very good herbicidal activity”, the herbicidal activity post-emergence [2] was “very good herbicidal activity” and the melting point was 77 °C.

Source: patent publication US20030171218A1, “Substituted 3-heteroaryl(amino- or oxy)pyrrolidin-2-ones, their preparation and use as herbicides or plant growth regulators” (priority 2001, published 2003)
